“And” between values parts separate entries of the source, which are not always exact repeats. Equal entries are not always repeated.
How the values were obtained:
Phytophthora infestans = assay: whole plant or invertebrate; type: in vivo; conditions: tomatoes; for pest or weed control at 10 ppm: read-out: Efficacy in % found, Table 1; for pest or weed control at 1 ppm / pest or weed control at 2 ppm: read-out: Efficacy in % found, Table 4; for pest or weed control at 2 ppm: 2 ppm a.i.
Alternaria solani = assay: whole plant or invertebrate; type: in vivo; conditions: for Efficacy in % found: in vivo
Venturia inaequalis = assay: Venturia test (apples)/preventive; type: in vivo; conditions: for pest or weed control at 4 ppm: Table 10, 4 ppm a.i.
Description: (§1) To produce a suitable preparation of active compound, 1 part by weight of active compound is mixed with the stated amounts of solvent and emulsifier, and the concentrate is diluted with water to the desired concentration.
To test for preventive activity, young plants are sprayed with the preparation of active compound at the stated rate of application. After the spray coating has dried on, the plants are inoculated with an aqueous conidia suspension of the causal agent of apple scab (Venturia inaequalis) and then remain for 1 day in an incubation cabinet at approximately 20° C. and a relative atmospheric humidity of 100%.
The plants are then placed in a greenhouse at approximately 21° C. and a relative atmospheric humidity of approximately 90%.
(§2) The test is evaluated 10 days after the inoculation. 0% means an efficacy which corresponds to that of the untreated control, while an efficacy of 100% means that no disease is observed.

Botrytis cinerea = assay: Botrytis test (beans)/preventive; type: in vivo; conditions: Table 12, 5 ppm a.i.
Description: as §1
To test for preventive activity, young plants are sprayed with the preparation of active compound. After the spray coating has dried on, 2 small pieces of agar covered with growth of Botrytis cinerea are placed on each leaf. The inoculated plants are placed in a darkened chamber at 20° C. and a relative atmospheric humidity of 100%.
2 days after the inoculation, the size of the lesions on the leaves is evaluated. 0% means an efficacy which corresponds to that of the untreated control, while an efficacy of 100% means that no disease is observed.
as §2

[1] = Phytophthora infestans, 72 h, 10 ppm a.i.
[2] = Alternaria solani, 72 h, read-out: Efficacy in % found
[3] = Phytophthora infestans, 72 h, 1 ppm a.i.
[4] = Venturia inaequalis, 240 h, read-out: Efficacy in % found

Description for physchem: Measurement of log P values was performed according EEC directive 79/831 Annex V.A8 by HPLC (High Performance Liquid
Chromatography) on reversed phase columns with the following methods:
^[a]Measurement was done at pH 2.3 with 0.1% phosphoric acid and acetonitrile as eluent.

O=[N+]([O-])c1cc(C(F)(F)F)c(Cl)c([N+](=O)[O-])c1Nc1ncc(C(F)(F)F)cc1Cl [14.4, fluazinam]
pest or weed control at 10 ppm (Phytophthora infestans; [1]): 0%

C#CCOc1ccc(F)cc1C1CC(c2csc(C3CCN(C(=O)Cn4nc(C(F)F)cc4C(F)F)CC3)n2)=NO1 (centres unmarked) [(I-8), 2-[3,5-bis(difluoromethyl)-1H-pyrazol-1-yl]-1-[4-(4-{5-[5-fluoro-2-(prop-2-yn-1-yloxy)phenyl]-4,5-dihydro-1,2-oxazol-3-yl}-1,3-thiazol-2-yl)piperidin-1-yl]ethanone]
chromatographic logP (physchem; pH 2.7): 3.37 | chromatographic logP (physchem; pH 7.8): 3.44

CCCCCCCCc1c(CC)nc2ncnn2c1N [3.1, ametoctradin]
Efficacy in % found (Phytophthora infestans; Table 1, 10 ppm a.i.): 0% | Efficacy in % found (Phytophthora infestans; Table 5, 2.5 ppm a.i.): 52%

propineb [5.29]
Efficacy in % found (Alternaria solani): 2% and 0% | Efficacy in % found (Phytophthora infestans; Table 3, 10 ppm a.i.): 24%

Cn1c(=O)c2sc3c(=O)n(C)c(=O)c3sc2c1=O [15.60, 2,6-dimethyl-1H,5H-[1,4]dithiino[2,3-c:5,6-c′]dipyrrole-1,3,5,7(2H,6H)-tetrone]
pest or weed control at 25 ppm (Alternaria solani; [2]): 29% | pest or weed control at 5 ppm (Phytophthora infestans; Phytophthora infestans, 72 h, read-out: Efficacy in % found, Table 2, 5 ppm a.i.): 49% | pest or weed control at 25 ppm (Venturia inaequalis; Venturia inaequalis, 240 h, Table 11, 25 ppm a.i., read-out: Efficacy in % found): 54%

metiram [5.25]
Efficacy in % found (Alternaria solani): 36% | Efficacy in % found (Phytophthora infestans; Table 2, 5 ppm a.i.): 12% | Efficacy in % found (Phytophthora infestans; Table 2, 10 ppm a.i.): 24%

CC(C)(C)OC(=O)N1CCC(c2nc(C3=NOC(c4c(F)cc(O)cc4F)C3)cs2)CC1 (centres unmarked) [tert-butyl 4-{4-[5-(2,6-difluoro-4-hydroxyphenyl)-4,5-dihydro-1,2-oxazol-3-yl]-1,3-thiazol-2-yl}piperidine-1-carboxylate]
chromatographic logP (physchem; pH 2.7): 3.24

CON=C(C(=O)OC)c1ccccc1CON=C(C)c1cccc(C(F)(F)F)c1 [3.22, trifloxystrobin]
pest or weed control at 0.25 ppm (Alternaria solani; [2]): 18% | pest or weed control at 1 ppm (Phytophthora infestans; [3]): 0% | pest or weed control at 2 ppm (Phytophthora infestans; Phytophthora infestans, 72 h): 0% | pest or weed control at 0.25 ppm (Venturia inaequalis; Venturia inaequalis, 240 h, Table 11, 0.25 ppm a.i., read-out: Efficacy in % found): 0%

O=C(Cn1nc(C(F)F)cc1C(F)F)N1CCC(c2nc(C3=NOC(c4c(F)ccc(O)c4F)C3)cs2)CC1 (centres unmarked) [2-[3,5-bis(difluoromethyl)-1H-pyrazol-1-yl]-1-(4-{4-[5-(2,6-difluoro-3-hydroxyphenyl)-4,5-dihydro-1,2-oxazol-3-yl]-1,3-thiazol-2-yl}piperidin-1-yl)ethanone]
chromatographic logP (physchem; pH 2.7): 2.61

propamocarb hydrochloride [10.10]
Efficacy in % found (Phytophthora infestans; Table 2, 5 ppm a.i.): 7% | Efficacy in % found (Phytophthora infestans; Table 4, 10 ppm a.i.): 18%

O=C(NCc1ncc(C(F)(F)F)cc1Cl)c1c(Cl)cccc1Cl [4.6, fluopicolide]
Efficacy in % found (Phytophthora infestans; Table 5, 0.5 ppm a.i.): 12%

Cn1cc(C(=O)Nc2ccc(F)cc2-c2ccc(Cl)c(Cl)c2)c(C(F)F)n1 [2.1, bixafen]
Efficacy in % found (Alternaria solani): 60% | Efficacy in % found (Venturia inaequalis; Table 10, 0.5 ppm a.i.): 26%

C[C@@]1(c2ccc(Oc3ccccc3)cc2)OC(=O)N(Nc2ccccc2)C1=O (racemic) [3.9, famoxadone]
pest or weed control at 2.5 ppm (Phytophthora infestans; Phytophthora infestans, 72 h, read-out: Efficacy in % found, Table 5, 2.5 ppm a.i.): 30%

COC(c1ccc(Cl)cc1Cl)C(C)NC(=O)c1cn(C)nc1C(F)F (centres unmarked) [2.27, N-[1-(2,4-dichlorophenyl)-1-methoxypropan-2-yl]-3-(difluoromethyl)-1-methyl-1H-pyrazole-4-carboxamide]
pest or weed control at 4 ppm (Venturia inaequalis; [4]): 87%

CC(C)C1C2CCC1c1c(NC(=O)c3cn(C)nc3C(F)F)cccc12 (centres unmarked) [2.12, isopyrazam]
Efficacy in % found (Alternaria solani): 60% | Efficacy in % found (Venturia inaequalis; Table 10, 0.5 ppm a.i.): 76%

fosetyl-aluminium [15.24]
Efficacy in % found (Phytophthora infestans; Table 1, 10 ppm a.i.): 0%

C#CCOc1c(F)cccc1C1CC(c2csc(C3CCN(C(=O)Cn4nc(C(F)F)cc4C(F)F)CC3)n2)=NO1 (centres unmarked) [(I-10), 2-[3,5-bis(difluoromethyl)-1H-pyrazol-1-yl]-1-[4-(4-{5-[3-fluoro-2-(prop-2-yn-1-yloxy)phenyl]-4,5-dihydro-1,2-oxazol-3-yl}-1,3-thiazol-2-yl)piperidin-1-yl]ethanone]
chromatographic logP (physchem; pH 2.7): 3.37 | chromatographic logP (physchem; pH 7.8): 3.48

[Cl-].[Cu+2].[Cu+2].[OH-].[OH-].[OH-] [5.8, copper oxychloride]
Efficacy in % found (Alternaria solani): 7% | Efficacy in % found (Phytophthora infestans; Table 2, 5 ppm a.i.): 12% | Efficacy in % found (Phytophthora infestans; Table 2, 10 ppm a.i.): 10% | Efficacy in % found (Venturia inaequalis; Table 11, 50 ppm a.i.): 54%

C#CCOc1cc(OC)ccc1C1CC(c2csc(C3CCN(C(=O)Cn4nc(C(F)F)cc4C(F)F)CC3)n2)=NO1 (centres unmarked) [(I-9), 2-[3,5-bis(difluoromethyl)-1H-pyrazol-1-yl]-1-[4-(4-{5-[4-methoxy-2-(prop-2-yn-1-yloxy)phenyl]-4,5-dihydro-1,2-oxazol-3-yl}-1,3-thiazol-2-yl)piperidin-1-yl]ethanone]
chromatographic logP (physchem; pH 2.7): 3.25 | chromatographic logP (physchem; pH 7.8): 3.2

C#CCOc1ccc(F)c(C2CC(c3csc(C4CCN(C(=O)Cn5nc(C(F)F)cc5C(F)F)CC4)n3)=NO2)c1F (centres unmarked) [(I-7), 2-[3,5-bis(difluoromethyl)-1H-pyrazol-1-yl]-1-[4-(4-{5-[2,6-difluoro-3-(prop-2-yn-1-yloxy)phenyl]-4,5-dihydro-1,2-oxazol-3-yl}-1,3-thiazol-2-yl)piperidin-1-yl]ethanone]
chromatographic logP (physchem; pH 2.7): 3.17

CO/C=C(/C(=O)OC)c1ccccc1Oc1cc(Oc2ccccc2C#N)ncn1 [3.3, azoxystrobin]
Efficacy in % found (Alternaria solani): 9% | Efficacy in % found (Phytophthora infestans; Table 4, 1 ppm a.i.): 0%

N#Cc1c(Cl)c(Cl)c(Cl)c(C#N)c1Cl [5.4, chlorothalonil]
Efficacy in % found (Botrytis cinerea): 8%

C#CCOc1cccc(C2CC(c3csc(C4CCN(C(=O)Cn5nc(C(F)F)cc5C(F)F)CC4)n3)=NO2)c1 (centres unmarked) [(I-3), 2-[3,5-bis(difluoromethyl)-1H-pyrazol-1-yl]-1-[4-(4-{5-[3-(prop-2-yn-1-yloxy)phenyl]-4,5-dihydro-1,2-oxazol-3-yl}-1,3-thiazol-2-yl)piperidin-1-yl]ethanone]
chromatographic logP (physchem; pH 2.7): 3.16 | chromatographic logP (physchem; pH 7.8): 3.24

CCNC(=O)NC(=O)/C(C#N)=N/OC [15.9, cymoxanil]
pest or weed control at 10 ppm (Phytophthora infestans; [1]): 0%

C#CCOc1ccc(CCNC(=O)C(OCC#C)c2ccc(Cl)cc2)cc1OC (centres unmarked) [9.5, mandipropamid]
Efficacy in % found (Phytophthora infestans; Table 1, 0.2 ppm a.i.): 0%

[Cu+2].[OH-].[OH-] [5.5, copper hydroxide]
Efficacy in % found (Alternaria solani): 16%

Cn1cc(C(=O)Nc2cccc3c2C2CCC3C2=C(Cl)Cl)c(C(F)F)n1 (centres unmarked) [2.29, N-[9-(dichloromethylene)-1,2,3,4-tetrahydro-1,4-methanonaphthalen-5-yl]-3-(difluoromethyl)-1-methyl-1H-pyrazole-4-carboxamide]
pest or weed control at 0.25 ppm (Alternaria solani; [2]): 40%

Cn1cc(C(=O)Nc2ccccc2-c2cc(F)c(F)c(F)c2)c(C(F)F)n1 [2.8, fluxapyroxad]
Efficacy in % found (Alternaria solani): 63% | Efficacy in % found (Venturia inaequalis; Table 10, 0.5 ppm a.i.): 54%

O=C(NCCc1ncc(C(F)(F)F)cc1Cl)c1ccccc1C(F)(F)F [2.6, fluopyram]
pest or weed control at 4 ppm (Venturia inaequalis; [4]): 33%

C#CCOc1cc(F)c(C2CC(c3csc(C4CCN(C(=O)Cn5nc(C(F)F)cc5C(F)F)CC4)n3)=NO2)c(F)c1 (centres unmarked) [(I-4), 2-[3,5-bis(difluoromethyl)-1H-pyrazol-1-yl]-1-[4-(4-{5-[2,6-difluoro-4-(prop-2-yn-1-yloxy)phenyl]-4,5-dihydro-1,2-oxazol-3-yl}-1,3-thiazol-2-yl)piperidin-1-yl]ethanone]
chromatographic logP (physchem; pH 2.7): 3.3

CSC1=N[C@@](C)(c2ccccc2)C(=O)N1Nc1ccccc1 [3.10, fenamidone]
pest or weed control at 0.25 ppm (Phytophthora infestans; Phytophthora infestans, 72 h, read-out: Efficacy in % found, Table 2, 0.25 ppm a.i.): 6%

Oc1cc(F)c(C2CC(c3csc(C4CCNCC4)n3)=NO2)c(F)c1 (centres unmarked) [4-{4-[5-(2,6-difluoro-4-hydroxyphenyl)-4,5-dihydro-1,2-oxazol-3-yl]-1,3-thiazol-2-yl}piperidinium chloride]
chromatographic logP (physchem; pH 2.7): 0.98

CO/N=C(/C1=NOCCO1)c1ccccc1Oc1ncnc(Oc2ccccc2Cl)c1F [3.12, fluoxastrobin]
pest or weed control at 0.5 ppm (Alternaria solani; [2]): 18% | pest or weed control at 1 ppm (Phytophthora infestans; [3]): 0% | pest or weed control at 2 ppm (Phytophthora infestans; Phytophthora infestans, 72 h): 0%

Cc1ccc(-c2c(Cl)nc(C#N)n2S(=O)(=O)N(C)C)cc1 [3.4, cyazofamid]
pest or weed control at 0.1 ppm (Phytophthora infestans; Phytophthora infestans, 72 h, read-out: Efficacy in % found, Table 5, 0.1 ppm a.i.): 0%

OP(O)O [15.41, phosphorous acid]
Efficacy in % found (Phytophthora infestans; Table 1, 10 ppm a.i.): 0%

COC(=O)N(OC)c1ccccc1COc1ccn(-c2ccc(Cl)cc2)n1 [3.17, pyraclostrobin]
pest or weed control at 0.25 ppm (Alternaria solani; [2]): 18% | pest or weed control at 1 ppm (Phytophthora infestans; [3]): 0% | pest or weed control at 2 ppm (Phytophthora infestans; Phytophthora infestans, 72 h): 0%

O=C(Cn1nc(C(F)F)cc1C(F)F)N1CCC(c2nc(C3=NOC(c4c(F)cc(O)cc4F)C3)cs2)CC1 (centres unmarked) [2-[3,5-bis(difluoromethyl)-1H-pyrazol-1-yl]-1-(4-{4-[5-(2,6-difluoro-4-hydroxyphenyl)-4,5-dihydro-1,2-oxazol-3-yl]-1,3-thiazol-2-yl}piperidin-1-yl)ethanone]
chromatographic logP (physchem; pH 2.7): 2.58

Source: patent US9144238B2, “Active compound combinations” (BAYER INTELLECTUAL PROPERTY GMBH, priority 2011, dated 2015)
